Test results from patent publication US8269017B2, “Compounds for the treatment of proliferative disorders” (Synta Pharmaceuticals Corporation, priority 2005, dated 2012).
“Also recorded” adds a separate entry of the source. Read-outs that look alike come from different tables or passages of the source.

Columns and labels:
[1] = tested on: human tumor cell line MDA-MB-435S; test: Nude mouse xenograft, MDA-MB-435S (Example 9); assay type: in vivo; conditions: i.v., 3 times per week
Method: FBS was obtained from ATCC and all other reagents were obtained from Invitrogen Corp. (Carlsbad, Calif., USA). […] To inactivate the trypsin, 5 mL of growth media was added and then the contents of the flask were centrifuged to pellet the cells. The supernatant was aspirated and the cell pellet was resuspended in 10 mL of growth media and the cell number determined using a hemocytometer.
Animals were housed 4-5/cage in micro-isolators, with a 12 hr/12 hr light/dark cycle, acclimated for at least 1 week prior to use and fed normal laboratory chow ad libitum.

[2] = tested on: MES-SA/DX5 (uterine sarcoma, MDR-1); test: cells; assay type: cell-based; conditions: Homo sapiens, MDR1, 72 h, MES/DX5 (MDR-1), MTS assay
Method: (§1) The in vitro cytotoxicity of the compounds of the invention was determined in the following human cell lines: HL-60 (T-cell leukemia), MDA-435 and MCF-7 (human breast carcinoma), NCI-H460 and H29 (colon carcinoma), DU145 (prostate carcinoma), and MES-SA and MES-SA/DX5 (uterine sarcoma). MES-SA is a model of uterine sarcoma, and the cell are sensitive to a number of chemotherapeutic agents including doxorubicin, dactinomycin, mitomycin C, taxol and bleomycin, but resistant to vinblastine and cisplatin. MES-SA/Dx5 was established in the presence of increasing concentrations of doxorubicin. […] All cells were purchased from ATCC.
(§2) The cell lines were maintained in RPMI1640 (GIBCO) supplemented with 10% FCS, 100 units/mL penicillin, 100 ug/ml streptomycin, and 2 mM L-glutamine. Cells were split every third day and diluted to a concentration of 2×10^5 cells/mL one day before the experiment was performed. All experiments were performed on exponentially growing cell cultures. Cell densities were 2.5×10^4 cells/mL in all experiments.
(§3) Compounds of the invention were prepared by dissolving the compound at a concentration of 10 mM in 100% DMSO. Final concentrations 10, 1, 0.1, 0.01 and 0.001 μM were obtained by diluting the stock solution directly into the tissue culture medium.

[3] = tested on: Africa green monkey kidney fibroblasts (CV1 cells); test: Microtubule depolymerization in CV-1 cells (anti-tubulin immunofluorescence); assay type: cell-based; conditions: 24 hr
Method: (§4) Depolymerizing microtubules not only kills dividing tumor cells but also induces disruption of newly generated blood vessels in tumor. The potency of Compound 249 in depolymerizing microtubules was examined in Africa green monkey kidney fibroblasts (CV1 cells) and primary human umbilical vein endothelium cells (HUVEC cells). The cells were treated with drugs (1, 10, 100, and 1000 nM for CV-1 and 1, 5, 10, 50, 100 nM for HUVEC) for 24 hr and fixed with 3% paraformaldehyde followed by cold methanol treatment to preserve both microtubule structures and depolymerized tubulin in the cytoplasm. The cells were stained with anti-tubulin antibody and subsequently fluorescent conjugated secondary antibody to visualize microtubule networks or cytoplasmic tubulin with fluorescent microscopy. As shown in FIG. 20 and FIG. 21, Compound 249 completely depolymerizes MT in a considerable proportion of CV1 cells at 10 nM and HUVEC cells at 1 nM (about 10% for both cell lines; data not shown). At 100 nM for CV1 and 5 nM for HUVEC cells, microtubules were completely depolymerized in nearly 100% cells. Tubulin staining in these cells was shown as cytoplasmic location and no microtubule structures were found in those cells. […] Compound 249 is a potent microtubule depolymerizing drug and HUVEC cells are extremely sensitive to Compound 249's anti-microtubule effect.

[4] = tested on: primary human umbilical vein endothelium cells (HUVEC cells); test: Microtubule depolymerization in HUVEC cells (anti-tubulin immunofluorescence); assay type: cell-based; conditions: 24 hr
Method: as §4

HL-60 (T-cell leukemia) = test: In vitro cytotoxicity, MTS assay, HL-60; assay type: cell-based, human; conditions: Homo sapiens
Method: as §1, §2, §3

MES-SA (uterine sarcoma) = test: In vitro cytotoxicity, MTS assay, MES-SA; assay type: cell-based, human; conditions: Homo sapiens, MES-SA (Uterine Carcinoma)
Method: as §1, §2, §3

[5] = tested on: human tumor cell line MDA-MB-435S; test: Nude mouse xenograft, MDA-MB-435S (Example 10); assay type: in vivo; conditions: Compound 169 at 2 mg/kg, Compound 174 at 4.55 mg/kg body weight, i.v., 1 time/week, 3 doses
Method: (§5) Seven to eight week old, female Crl:CD-1-nuBR (nude) mice were obtained from Charles River Laboratories (Wilmington, Mass., USA). Animals were housed 4-5/cage in micro-isolators, with a 12 hr/12 hr light/dark cycle, acclimated for at least 1 week prior to use and fed normal laboratory chow ad libitum. Studies were conducted on animals between 8 and 10 weeks of age at implantation. To implant MDA-MB-4355 tumor cells into nude mice, the cells were trypsinized as above, washed in PBS and resusupended at a concentration of 50×10(6) cells/ml in PBS. Using a 27 gauge needle and 1 cc syringe, 0.1 ml of the cell suspension was injected into the corpus adiposum of nude mice. The corpus adiposum is a fat body located in the ventral abdominal vicera in the right quadrant of the abdomen at the juncture of the os coxae (pelvic bone) and the os femoris (femur).
Tumors were then permitted to develop in vivo until the majority reached an average of 100-200 mm^3 in tumor volume, which typically required 2-3 weeks following implantation. […] Tumor volumes (V) were calculated by caliper measurement of the width (W), length (L) and thickness (T) of tumors using the following formula: V=0.5236×(L×W×T). Animals were randomized into treatment groups so that the median tumor volumes of each group were similar at the start of dosing. % T/C values, as a measure of efficacy, were determined as follows: • (i) If ΔT>0: % T/C=[…] • (ii) If ΔT<0: % T/C=(ΔT/T0)×100 • (iii) ΔT=Change in median tumor volume between start of dosing and the end of study. • (iv) ΔC=Change in median tumor volume between start of dosing and the end of study. • (v) T0=Median tumor volume at start of dosing.
(§6) Compounds were formulated in either D5W (Compounds 169 and 174) or DRD (Compound 178). For formulations in D5W, solutions of test articles were prepared by dissolving the appropriate amounts of each compound in 5% dextrose in water (Abbott Laboratories, North Chicago, Ill., USA) by sonication in an ultrasonic water bath. For formulations in DRD, stock solutions of test articles were prepared by dissolving the appropriate amounts of each compound in dimethyl sulfoxide (DMSO) by sonication in an ultrasonic water bath. Stock solutions were prepared weekly, stored at −20° C. and diluted fresh each day for dosing. A solution of 20% Cremophore RH40 (polyoxyl 40 hydrogenated castor oil; BASF Corp., Aktiengesellschaft, Ludwigshafen, Germany) in 5% dextrose in water (Abbott Laboratories, North Chicago, Ill., USA) was also prepared by first heating 100% Cremophore RH40 at 50-60° C. until liquefied and clear, diluting 1:5 with 100% D5W, reheating again until clear and then mixing well. This solution was stored at room temperature for up to 3 months prior to use. […]

[6] = Body weight change in EMT6 tumor growth study; assay type: in vivo, nude mouse
Method: Seven to eight week old, female Crl:CD-1-nuBR (nude) mice were obtained from Charles River Laboratories (Wilmington, Mass., USA). Animals were housed 4-5/cage in micro-isolators, with a 12 hr/12 hr light/dark cycle, acclimated for at least 1 week prior to use and fed normal laboratory chow ad libitum. Studies were conducted on animals between 8 and 10 weeks of age at implantation. To implant EMT6 tumor cells into nude mice, the cells were trypsinized as above, washed in PBS and resusupended at a concentration of 10×10^6 cells/mL in PBS. Using a 27 gauge needle and 1 cc syringe, 0.1 mL of the cell suspension was injected subcutaneously into the flank of each nude mouse. Tumor-bearing animals were given single intravenous (i.v.) bolus injections of either vehicle or Compound 174 at 10 mL per kg body weight. To measure the effect of the drug treatment on tumor growth rates, tumor volumes were measured 3 days after dosing (FIG. 22).

[7] = Body weight change in MDA-MB-435S xenograft study (Example 10); assay type: in vivo, nude mouse; conditions: Compound 169 at 2 and 1 mg/kg, Compound 174 at 4.55 and 2.28 mg/kg body weight, i.v., 1 time per week, 3 doses; Hydrochloride
Method: as §5
as §6, with “use. To prepare DRD formulations for daily dosing, DMSO stock solutions were diluted 1:10 with 20% Cremophore RH40.” for “use.”

CC(=O)O[C@H]1C(=O)[C@@]2(C)[C@H]([C@H](OC(=O)c3ccccc3)[C@]3(O)C[C@H](OC(=O)[C@H](O)[C@@H](NC(=O)c4ccccc4)c4ccccc4)C(C)=C1C3(C)C)[C@]1(OC(C)=O)CO[C@@H]1C[C@@H]2O [paclitaxel, Paclitaxel]
tumor regression ([1]; paclitaxel at 7.5 mg/kg body weight, 10 doses): did not | tumor growth compared to vehicle ([1]; paclitaxel at 7.5 mg/kg): decreased tumor growth

COc1ccc(-c2cnoc2-c2cc(OC)c(OC)c(OC)c2)cc1N [Compound 249, 2-methoxy-5-(5-(3,4,5-trimethoxyphenyl)isoxazol-4-yl)aniline]
IC50 [2]: 1 nM | proportion of cells with completely depolymerized microtubules ([3]; 10 nM): about 10% | proportion of cells with completely depolymerized microtubules ([3]; 100 nM): ~100% | microtubule structure ([4]; 1 nM): Fragmented microtubules were found | proportion of cells with completely depolymerized microtubules ([4]; 1 nM): about 10% | proportion of cells with completely depolymerized microtubules ([4]; 5 nM): ~100% | IC50 (HL-60 (T-cell leukemia); HL-60, 72 h, HL60 (Leukemia)): 1 nM | IC50 (MES-SA (uterine sarcoma); MES-SA, 72 h): 1 nM

COc1ccc(-c2cnoc2-c2cc(OC)c(OC)c(OC)c2)cc1NC(=O)C(N)Cc1ccccc1.Cl (centres unmarked) [Compound 174, 2-amino-N-(2-methoxy-5-(5-(3,4,5-trimethoxyphenyl)isoxazol-4-yl)phenyl)-3-phenylpropanamide Hydrochloride]
% T/C [5]: 25% | largest average percent change in body weight ([6]; 4.55 mg/kg body weight single i.v., one day after dosing): −7.3% | body weight lost by any individual animal ([6]; any point over the course of the study): ≤ 11% | IC50 [2]: 0.1 nM | IC50 (HL-60 (T-cell leukemia); HL-60, HL60 (Leukemia), 72 hours, read-out: IC50): 2 nM | overt toxicity (effect on body weights) [7]: not overtly toxic; also recorded: not associated with overt toxicity | IC50 (MES-SA (uterine sarcoma); 72 hours, read-out: IC50): 0.1 nM
